Values of other authors in US12454539B2, “Controlled-delivery cromakalim prodrugs” (Qlaris Bio, Inc., priority 2019, dated 2025).

Legend:
[1] = system: KATP channels; conditions: membrane patches from rabbit mesenteric arterial smooth muscle cells, in the presence of ATP
[2] = system: isolated rat mesenteric lymph vessels; conditions: increasing concentrations
[3] = system: normotensive mouse model; conditions: once daily dosing

solubility in water | Compound | increase of open-state probability (Popen) of single KATP channels [1] | contractions of lymph vessels [2] | intraocular pressure (IOP) [3]
– | CC1(C)Oc2ccc(C#N)cc2C(N2CCCC2=O)C1O (stereo not shown) [Cromakalim, cromakalim] | more than 9 fold | abolished the contractions of the vessels | –
more water soluble than levcromakalim | CC1(C)Oc2ccc(C#N)cc2[C@@H](N2CCCC2=O)[C@@H]1OP(=O)(O)O [CKLP1] | – | – | lower intraocular pressure
